This is an account of results in patent US9616107B2, “Therapy for kidney disease and/or heart failure” (priority 2011, dated 2017).

Ends that are not written are not given here.

The format of data set [1] is physicochemical. The text has this:
Elliotts B® Solution is a sterile, non-pyrogenic, isotonic buffer that is approved by the United States Food and Drug Administration (FDA) for intrathecal administration of methotrexate sodium and cytarabine. Elliotts B® Solution will be used as a diluent for VD since it provides the appropriate isotonicity and pH attributes desired for SC administration. […] The detailed contents of Elliots B® Solution are provided in the Trial Dispensing Protocol. Storage conditions of the raw material, Elliotts B® Solution, as well as the reconstitution method will be supplied in a Pharmacy Guideline provided during the study.

A short description of data set [2]: Pharmacodynamic study of VD in canines: 10-day subcutaneous infusion in high-rate paced heart failure model. Type of data set: in vivo, canine. The conditions noted are these: dog, plasma; Day 10 of continuous vessel dilator infusion 100 ng/kg·min SC; Day 0 0.66+/−0.37; read-out: Pre-proANF (56-92) plasma concentration (radioimmunoassay). As to the method: A pharmaceutical formulation of VD was prepared in a Tris buffer. 16.0 g glycerol, 6.05 g tris-(hydroxymethyl)-aminomethane (“Tris”), 2.50 g meta cresol were mixed in a 1.00 L volumetric flask. Approximately 900 mL nanopure water was added to the volumetric flask and the mixture was magnetically stirred to reach complete dissolution. 4 normal hydrochloric acid was used to adjust pH to 7.3 at 25° C. Then, the flask was filled to 1 L mark with nanopure water. The pH was rechecked and verified to be 7.3 at 25° C. The pH 7.3 Tris buffer was stored at 2-8° C. until use.
Lyophilized VD peptide (Bachem) was weighted into a glass vial and dissolved into a known volume of the Tris buffer to a concentration between 1 mg/mL and 10 mg/mL. The VD peptide was dissolved by gentle mixing and the solution was allowed to rest for between 20 and 30 minutes. The pH of the solution was checked and adjusted to 7.3 with 0.1 N sodium hydroxide. […]
Seven days prior to the beginning of HRP (Day −7), all dogs were instrumented for ventricular pacing with an IPG (implantable pulse generator) including an RA (right atrium) and RV (right ventricle) lead, and a DSI (Digital Sciences International) device in the femoral artery for arterial blood pressure monitoring. Glomerular filtration rate (GFR) was measured by iohexol clearance on the day before the beginning of HRP (Day −1). […]

Regarding “EVVPPQVLSEPNEEAGAALSPLPEVPPWTGEVSPAQR [VD, Vessel Dilator]”, the “stability and compatibility of VD in Elliotts B Solution” value in data set [1] is “has been demonstrated”. Also, the level at 240 h in data set [2] turned out to be 41.1 ng/mL.
